According to patent US6387397B1, “Polymerized liposomes targeted to M cells and useful for oral or mucosal drug delivery” (Massachusetts Institute of Technology, priority 1997, dated 2002):

Assay: In vivo oral insulin delivery; blood glucose level
Parameters: species or system Balb/C mice
Conditions: mice, single oral dose, 1 to 3.5 hours
Procedure: Balb/C mice of female sex were fasted for 12 hours before experiment. Each mouse wag savaged 200 μL of each preparation as described in Table 9.3. Food was restored immediately after administration. Blood samples for glucose determination was drawn from mouse tail vein under methoxyflurane anesthesia. Samples were drawn right before the administration (0 hour), as well as at 1, 2, 3 and 3.5 hours post administration of each preparation. Blood glucose level was measured using a One Touch® Profile Diabetes Tracking system (Lifescan, Milpitas, Calif.) with One Touch® Test strips, by applying blood to form a round drop which completely covered the test spot on the test strip. Readings (in mg/dL) were obtained from the meter indicating the blood glucose level detected.
Blood glucose level at zero hour was taken at 100 percent. Blood glucose levels after the oral administration were normalized by the level at zero hour, and the results were plotted in FIG. 9. […] This was due to the degradation of the unprotected peptide in the gastrointestinal tract by the digestive enzymes. […] This is consistent with the fact that unpolymerized liposomes are not stable in the gastrointestinal tract, where they are dissolved by the biological detergents. The dissolution results in the exposure of liposomal contents and therefore the loss of liposome protective functions. […]

In the case of “insulin in solution: human insulin (regular) administered orally in solution”, the “change in blood glucose level after oral administration” value is reported as “did not result in any significant change”.
